The source of these data is ChEMBL document CHEMBL1255490, “In vitro activities of DC-159a, a novel fluoroquinolone, against Mycobacterium species” (Antimicrob Agents Chemother, 2010).

In data set [1] the test system is Mycobacterium tuberculosis. In words: Antimycobacterial activity against drug-susceptible Mycobacterium tuberculosis after 21 days by agar dilution method. In kind it is functional. As to conditions: 504 h.
Another data set relates to Mycobacterium kansasii. Kind of data set: Antimycobacterial activity against Mycobacterium kansasii after 7 days by agar dilution method. In kind it is functional. The conditions noted are these: 168 h.
Data set [2] relates to Mycolicibacterium fortuitum. In words: Antimycobacterial activity against Mycobacterium fortuitum after 3 days by agar dilution method. The data set is classed as functional. The conditions noted are these: 72 h.
In data set [3] the test system is Mycobacterium avium. Kind of data set: Antimycobacterial activity against Mycobacterium avium serovar 4 after 14 days by agar dilution method. The data set is classed as functional. The conditions noted are these: serovar 4, 336 h.
In data set [4] the test system is Mycobacterium avium. Kind of data set: Antimycobacterial activity against Mycobacterium avium serovar 8 after 14 days by agar dilution method. In kind it is functional. The conditions noted are these: serovar 8, 336 h.
The test system of data set [5] is Mycobacterium intracellulare. Kind of data set: Antimycobacterial activity against Mycobacterium intracellular serovar 16 after 21 days by agar dilution method. In kind it is functional. As to conditions: serovar 16, 504 h.
The subject of the next data set is Mycobacteroides chelonae. Kind of data set: Antimycobacterial activity against Mycobacterium chelonae after 3 days by agar dilution method. In kind it is functional. The conditions noted are these: 72 h.
Data set [6] deals with Mycobacteroides abscessus. Kind of data set: Antimycobacterial activity against Mycobacterium abscessus after 3 days by agar dilution method. In kind it is functional. The conditions noted are these: 72 h.
Data set [7] is described as follows: Cmax in monkey at 5 mg/kg, po. On the set-up: dose 5 mg/kg, route oral. The data set is classed as ADME, organism-based, Macaca mulatta. As to conditions: rhesus monkey, in vivo.
Data set [8] can be described thus: AUC (0 to 24 hrs) in monkey at 5 mg/kg, po. In kind it is ADME, organism-based, Macaca mulatta. Also on record: time < 24 hr, dose 5 mg/kg, route oral. As to conditions: rhesus monkey, plasma.

Converted amounts (≈) assume the structure as drawn.

For `COc1c(N2CC3(CC3)[C@](C)(N)C2)c(F)cc2c(=O)c(C(=O)O)cn([C@@H]3C[C@@H]3F)c12`, the MIC50 in data set [1] was 0.06 µg/mL (≈ 0.143 µM); against Mycobacterium kansasii, 0.06 µg/mL (≈ 0.143 µM); in [2], 0.125 µg/mL (≈ 0.298 µM); against Mycobacterium avium [3], 1 µg/mL (≈ 2.38 µM); with Mycobacterium avium [4], 1 µg/mL (≈ 2.38 µM); in data set [5], 1 µg/mL (≈ 2.38 µM). For the same compound, the MIC50 amounted to 4 µg/mL (≈ 9.54 µM) with Mycobacteroides chelonae and 8 µg/mL (≈ 19.1 µM) in data set [6]. In addition, the MIC90 was found to be 0.06 µg/mL (≈ 0.143 µM) in data set [1]; 0.125 µg/mL (≈ 0.298 µM) with Mycobacterium kansasii; 0.25 µg/mL (≈ 0.596 µM) in [2]; 2 µg/mL (≈ 4.77 µM) with Mycobacterium avium [3]; 2 µg/mL (≈ 4.77 µM) in the data set with Mycobacterium avium [4]; 4 µg/mL (≈ 9.54 µM) in data set [5]. Further, the MIC90 with Mycobacteroides chelonae is 8 µg/mL (≈ 19.1 µM); in [6], 16 µg/mL (≈ 38.1 µM). The MIC in the data set on Mycobacteroides chelonae is 4 µg/mL (≈ 9.54 µM). Further, the maximum concentration (Cmax) in data set [7] was found to be 2200 ng/mL. In data set [8], the AUC(0-t) at 24 h came to 16900 ng·h/mL.

Consider `COc1c(N2CCNC(C)C2)c(F)cc2c(=O)c(C(=O)O)cn(C3CC3)c12` (configuration not stated) [GATIFLOXACIN], for which the MIC50 worked out at 0.125 µg/mL (≈ 0.333 µM) in data set [1]; 0.125 µg/mL (≈ 0.333 µM) with Mycobacterium kansasii; 0.125 µg/mL (≈ 0.333 µM) in data set [2]; 2 µg/mL (≈ 5.33 µM) against Mycobacterium avium [3]; 2 µg/mL (≈ 5.33 µM) against Mycobacterium avium [4]; 4 µg/mL (≈ 10.7 µM) in data set [5]. The MIC50 is 16 µg/mL (≈ 42.6 µM) in the data set with Mycobacteroides chelonae and 32 µg/mL (≈ 85.2 µM) in [6]. Further, the MIC90 in data set [1] came to 0.25 µg/mL (≈ 0.666 µM); against Mycobacterium kansasii it was 0.5 µg/mL (≈ 1.33 µM); in data set [2], 0.25 µg/mL (≈ 0.666 µM); against Mycobacterium avium [3] it was 8 µg/mL (≈ 21.3 µM); against Mycobacterium avium [4], 8 µg/mL (≈ 21.3 µM); in data set [5], 16 µg/mL (≈ 42.6 µM). The MIC90 with Mycobacteroides chelonae came to 32 µg/mL (≈ 85.2 µM); in [6] it was 64 µg/mL (≈ 170 µM).

Turning to `C[C@H]1COc2c(N3CCN(C)CC3)c(F)cc3c(=O)c(C(=O)O)cn1c23.C[C@H]1COc2c(N3CCN(C)CC3)c(F)cc3c(=O)c(C(=O)O)cn1c23.O` [LEVOFLOXACIN], the MIC50 in [1] was found to be 0.5 µg/mL; against Mycobacterium kansasii, 0.25 µg/mL; in [2] it was 0.25 µg/mL; against Mycobacterium avium [3], 8 µg/mL; against Mycobacterium avium [4] it was 8 µg/mL; in [5], 8 µg/mL. The MIC50 against Mycobacteroides chelonae stood at 32 µg/mL; in data set [6], 64 µg/mL. Besides, the MIC90 amounted to 0.5 µg/mL in [1]; 1 µg/mL in the data set on Mycobacterium kansasii; 0.5 µg/mL in data set [2]; 32 µg/mL against Mycobacterium avium [3]; 32 µg/mL with Mycobacterium avium [4]; 32 µg/mL in data set [5]. In addition, the MIC90 in the data set with Mycobacteroides chelonae was 64 µg/mL; in data set [6], 128 µg/mL. The compound also yielded an MIC against Mycobacterium kansasii of 0.25 µg/mL.

In the case of `COc1c(N2C[C@@H]3CCCN[C@@H]3C2)c(F)cc2c(=O)c(C(=O)O)cn(C3CC3)c12` [MOXIFLOXACIN], the MIC50 in data set [1] worked out at 0.25 µg/mL (≈ 0.623 µM); with Mycobacterium kansasii, 0.125 µg/mL (≈ 0.311 µM); in data set [2], 0.125 µg/mL (≈ 0.311 µM); in [5], 2 µg/mL (≈ 4.98 µM); against Mycobacteroides chelonae it was 32 µg/mL (≈ 79.7 µM); in data set [6], 64 µg/mL (≈ 159 µM). The MIC90 in data set [1] stood at 0.25 µg/mL (≈ 0.623 µM); in the data set on Mycobacterium kansasii, 0.25 µg/mL (≈ 0.623 µM); in [2], 0.25 µg/mL (≈ 0.623 µM); in data set [5], 8 µg/mL (≈ 19.9 µM); with Mycobacteroides chelonae it was 32 µg/mL (≈ 79.7 µM); in data set [6] it was 128 µg/mL (≈ 319 µM).

With `CO[C@H]1/C=C/O[C@@]2(C)Oc3c(C)c(O)c4c(O)c(c(/C=N/N5CCN(C)CC5)c(O)c4c3C2=O)NC(=O)/C(C)=C\C=C\[C@H](C)[C@H](O)[C@@H](C)[C@@H](O)[C@@H](C)[C@H](OC(C)=O)[C@@H]1C` [RIFAMPIN], the MIC50 in data set [1] stood at 0.06 µg/mL (≈ 0.0729 µM); in the data set on Mycobacterium kansasii it was 0.25 µg/mL (≈ 0.304 µM); in data set [2], 32 µg/mL (≈ 38.9 µM); in the data set on Mycobacterium avium [3], 32 µg/mL (≈ 38.9 µM); against Mycobacterium avium [4] it was 32 µg/mL (≈ 38.9 µM); in data set [5] it was 2 µg/mL (≈ 2.43 µM). Also, the MIC50 (in the data set on Mycobacteroides chelonae; in [6]) was over 128 µg/mL in each case. The MIC90 in data set [1] is 0.125 µg/mL (≈ 0.152 µM); in the data set on Mycobacterium kansasii, 0.25 µg/mL (≈ 0.304 µM); in data set [2], 64 µg/mL (≈ 77.8 µM); against Mycobacterium avium [3], 128 µg/mL (≈ 156 µM); in the data set on Mycobacterium avium [4] it was 128 µg/mL (≈ 156 µM); in data set [5], 32 µg/mL (≈ 38.9 µM). The MIC90 (with Mycobacteroides chelonae; in data set [6]) was over 128 µg/mL each time. Further, the MIC (with Mycobacteroides chelonae; in data set [6]) was over 128 µg/mL each time.
